Data on 18 compounds can be found in patent publication US8263608B2, “Melanocortin receptor-specific spiro-piperidine compounds” (Palatin Technologies, Inc., priority 2008, dated 2012).

The target of this experiment is T1, MC1-R (Homo sapiens, UniProt Q01726).
T1 construct: or, for MC1-R, in HBL cells; endogenous in cells; host or cells: HBL cells
The experiment can be described thus: Assay for agonist activity: intracellular cAMP accumulation (functional assay). As to conditions: functional assays at MC1-R; for EC50: HBL cells that express MC1-R, cAMP; for Emax: maximum efficacy compared to reference agonist NDP-α-MSH. It is filed as cell-based. The procedure:
Accumulation of intracellular cAMP is examined as a measure of the ability of the test compounds to elicit a functional response in HEK-293 cells that express MC4-R, or, for MC1-R, in HBL cells. Confluent HEK-293 cells that express recombinant hMC4-R, or HBL cells that express MC1-R, are detached from culture plates by incubation in enzyme-free cell dissociation buffer. Dispersed cells are suspended in Earle's Balanced Salt Solution containing 10 mM HEPES (pH 7.5), 1 mM MgCl2, 1 mM glutamine, 0.5% albumin and 0.3 mM 3-isobutyl-1-methyl-xanthine (IBMX), a phosphodiesterase inhibitor. The cells are plated in 96-well plates at a density of 0.5 x 10^5 cells per well and pre-incubated for 30 minutes. Cells are exposed for 1 hour at 37° C. to test compounds dissolved in DMSO (final DMSO concentration of 1%) at a concentration range of 0.05-5000 nM in a total assay volume of 200 μL. NDP-α-MSH is used as the reference agonist. At the end of the incubation period, cells are disrupted by the addition of 50 μL of lysis buffer (cAMP EIA kit, Amersham) followed by vigorous pipetting. Levels of cAMP in the lysates are determined using a cAMP EIA kit (Amersham). Data analysis is performed by nonlinear regression analysis with Graph-Pad Prism® software. The maximum efficacies of the test compounds are compared to that achieved by the reference melanocortin agonist NDP-α-MSH.

T1 sequence (Q01726 whole entry): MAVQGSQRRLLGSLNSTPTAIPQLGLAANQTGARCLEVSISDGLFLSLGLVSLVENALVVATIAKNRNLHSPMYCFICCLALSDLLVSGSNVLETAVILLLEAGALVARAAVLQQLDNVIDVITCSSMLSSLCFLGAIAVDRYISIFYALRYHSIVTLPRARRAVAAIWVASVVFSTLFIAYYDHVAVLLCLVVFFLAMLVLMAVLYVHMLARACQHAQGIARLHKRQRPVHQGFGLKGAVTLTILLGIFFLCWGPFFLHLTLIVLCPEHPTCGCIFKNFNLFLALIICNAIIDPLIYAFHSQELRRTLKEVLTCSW

On to `COc1ccc(C[C@@H](NC(=O)[C@@H](N)Cc2cncn2C)C(=O)N2CCC3(CC2)C(=O)N(Cc2ccccc2)CN3c2ccccc2)cc1` [Example 144, (S)-2-Amino-N-[(R)-2-(3-benzyl-4-oxo-1-phenyl-1,3,8-triaza-spiro[4.5]dec-8-yl)-1-(4-methoxy-benzyl)-2-oxo-ethyl]-3-(3-methyl-3H-imidazol-4-yl)-propionamide], for which the “functional status at MC1-R” value is listed as “partial agonist”; a half-maximal response (EC50) required 17 nM; the Emax (usually the greatest response seen or fitted, relative to the assay's reference) is 46%.
On to `COC(=O)CN1CN(c2ccccc2)C2(CCN(C(=O)[C@@H](Cc3ccc(OC)cc3)NC(=O)CCc3cnc[nH]3)CC2)C1=O` [Example 137, {8-[(R)-2-(3-3H-Imidazol-4-yl-propionylamino)-3-(4-methoxy-phenyl)-propionyl]-4-oxo-1-phenyl-1,3,8-triaza-spiro[4.5]dec-3-yl}-acetic acid methyl ester], for which the “functional status at MC1-R” value is given as “partial agonist”; the midpoint of the response, the EC50, lay at 38 nM; the Emax amounted to 56%.
As for `COc1ccc(C[C@@H](NC(=O)CCc2cnc[nH]2)C(=O)N2CCC3(CC2)C(=O)N(C2CCCC2)CN3c2ccccc2)cc1` [Example 152, N-[(R)-2-(3-Cyclopentyl-4-oxo-1-phenyl-1,3,8-triaza-spiro[4.5]dec-8-yl)-1-(4-methoxy-benzyl)-2-oxo-ethyl]-3-(3H-imidazol-4-yl)-propionamide], the “functional status at MC1-R” value is “partial agonist”, the EC50 (commonly the concentration needed to bring the measured effect to its halfway point) came out at 2 nM and the Emax was determined as 50%.
For `COc1ccc(C[C@@H](NC(=O)C[C@H]2Cc3ccccc3CN2)C(=O)N2CCC3(CC2)C(=O)N(C(C)C)CN3c2ccccc2)cc1` [Example 164, N-[(R)-2-(3-Isopropyl-4-oxo-1-phenyl-1,3,8-triaza-spiro[4.5]dec-8-yl)-1-(4-methoxy-benzyl)-2-oxo-ethyl]-2-(R)-1,2,3,4-tetrahydro-isoquinolin-3-yl-acetamide], the “functional status at MC1-R” value is listed as “partial agonist”, the EC50 amounted to 0.7 nM and the Emax worked out at 75%.
On the same counts, the results for `COc1ccc(C[C@@H](NC(=O)CCc2c[nH]cn2)C(=O)N2CCC3(CC2)C(=O)N(Cc2ccc(Cl)cc2)CN3c2ccccc2)cc1` [Example 156, N-[(R)-2-[3-(4-Chloro-benzyl)-4-oxo-1-phenyl-1,3,8-triaza-spiro[4.5]dec-8-yl]-1-(4-methoxy-benzyl)-2-oxo-ethyl]-3-(1H-imidazol-4-yl)-propionamide] are “partial agonist”, 23 nM and 45%.
Turning to `COc1ccc(C[C@@H](NC(=O)CCc2cnc[nH]2)C(=O)N2CCC3(CC2)C(=O)N(C(C)C)CN3c2ccccc2)cc1` [Example 150, 3-(3H-Imidazol-4-yl)-N-[(R)-2-(3-isopropyl-4-oxo-1-phenyl-1,3,8-triaza-spiro[4.5]dec-8-yl)-1(4-methoxy-benzyl)-2-oxo-ethyl]-propionamide], the “functional status at MC1-R” value is recorded as “partial agonist”, the EC50 was 3 nM and the Emax stood at 71%.
In the same order, the values of `COc1ccc(C[C@@H](NC(=O)[C@@H](N)Cc2cncn2C)C(=O)N2CCC3(CC2)C(=O)N(C2CCCC2)CN3c2ccccc2)cc1` [Example 151, (S)-2-Amino-N-[(R)-2-(3-cyclopentyl-4-oxo-1-phenyl-1,3,8-triaza-spiro[4.5]dec-8-yl)-1-(4-methoxy-benzyl)-2-oxo-ethyl]-3-(3-methyl-3H-imidazol-4-yl)-propionamide] are “partial agonist”, 7 nM and 37%.
On the same counts, the results for `COC(=O)CN1CN(c2ccccc2)C2(CCN(C(=O)[C@@H](Cc3ccc(OC)cc3)NC(=O)CCCCN)CC2)C1=O` [Example 138, {8-[(R)-2-(5-Amino-pentanoylamino)-3-(4-methoxy-phenyl)-propionyl]-4-oxo-1-phenyl-1,3,8-triaza-spiro[4.5]dec-3-yl}-acetic acid methyl ester] are “partial agonist”, 340 nM and 44%.
In the same order, the values of `COc1ccc(C[C@@H](NC(=O)CCc2c[nH]cn2)C(=O)N2CCC3(CC2)C(=O)N(Cc2ccccn2)CN3c2ccccc2)cc1` [Example 157, 3-(1H-Imidazol-4-yl)-N-[(R)-1-(4-methoxy-benzyl)-2-oxo-2-(4-oxo-1-phenyl-3-pyridin-2-ylmethyl-1,3,8-triaza-spiro[4.5]dec-8-yl)-ethyl]-propionamide] are “partial agonist”, 41 nM and 38%.
As to `CCN1CN(c2ccccc2)C2(CCN(C(=O)[C@@H](Cc3ccc(OC)cc3)NC(=O)[C@@H](N)Cc3cncn3C)CC2)C1=O` [Example 140, (S)-2-Amino-N-[(R)-2-(3-ethyl-4-oxo-1-phenyl-1,3,8-triaza-spiro[4.5]dec-8-yl)-1-(4-methoxy-benzyl)-2-oxo-ethyl]-3-(3-methyl-3H-imidazol-4-yl)-propionamide], the “functional status at MC1-R” value is given as “partial agonist”, the response was half-maximal at 25 nM (EC50) and the Emax amounted to 42%.
Take `COc1ccc(C[C@@H](NC(=O)CCc2c[nH]cn2)C(=O)N2CCC3(CC2)C(=O)N(Cc2ccccc2Cl)CN3c2ccccc2)cc1` [Example 154, N-[(R)-2-[3-(2-Chloro-benzyl)-4-oxo-1-phenyl-1,3,8-triaza-spiro[4.5]dec-8-yl]-1-(4-methoxy-benzyl)-2-oxo-ethyl]-3-(1H-imidazol-4-yl)-propionamide]: the “functional status at MC1-R” value is “partial agonist”, a half-maximal response (EC50) required 26 nM and the Emax is 50%.
In the case of `COc1ccc(C[C@@H](NC(=O)[C@@H](N)Cc2cncn2C)C(=O)N2CCC3(CC2)C(=O)N(C)CN3c2ccccc2)cc1` [Example 139, (S)-2-Amino-N-[(R)-1-(4-methoxy-benzyl)-2-(3-methyl-4-oxo-1-phenyl-1,3,8-triaza-spiro[4.5]dec-8-yl)-2-oxo-ethyl]-3-(3-methyl-3H-imidazol-4-yl)-propionamide], the “functional status at MC1-R” value is on record as “partial agonist”, the EC50 was 177 nM and the Emax is 45%.
As for `COc1ccc(C[C@@H](NC(=O)CCc2cnc[nH]2)C(=O)N2CCC3(CC2)C(=O)N(C2CCC2)CN3c2ccccc2)cc1` [Example 159, N-[(R)-2-(3-Cyclobutyl-4-oxo-1-phenyl-1,3,8-triaza-spiro[4.5]dec-8-yl)-1-(4-methoxy-benzyl)-2-oxo-ethyl]-3-(3H-imidazol-4-yl)-propionamide], the “functional status at MC1-R” value was “partial agonist”, the EC50 stood at 6 nM and the Emax turned out to be 49%.
On the same counts, the results for `COc1ccc(C[C@@H](NC(=O)[C@@H](N)Cc2cncn2C)C(=O)N2CCC3(CC2)C(=O)N(C(C)C)CN3c2ccccc2)cc1` [Example 141, (S)-2-Amino-N-[(R)-2-(3-isopropyl-4-oxo-1-phenyl-1,3,8-triaza-spiro[4.5]dec-8-yl)-1-(4-methoxy-benzyl)-2-oxo-ethyl]-3-(3-methyl-3H-imidazol-4-yl)-propionamide] are “partial agonist”, 6 nM and 45%.
For the compound `COc1ccc(C[C@@H](NC(=O)CCc2cnc[nH]2)C(=O)N2CCC3(CC2)C(=O)N(CCO)CN3c2ccccc2)cc1` [Example 149, N-[(R)-2-[3-(2-Hydroxy-ethyl)-4-oxo-1-phenyl-1,3,8-triaza-spiro[4.5]dec-8-yl]-1-(4-methoxy-benzyl)-2-oxo-ethyl]-3-(3H-imidazol-4-yl)-propionamide], the “functional status at MC1-R” value was “partial agonist”, the EC50 is 25 nM and the Emax worked out at 60%.
In the same order, the values of `CCCCN1CN(c2ccccc2)C2(CCN(C(=O)[C@@H](Cc3ccc(OC)cc3)NC(=O)[C@@H](N)Cc3cncn3C)CC2)C1=O` [Example 142, (S)-2-Amino-N-[(R)-2-(3-butyl-4-oxo-1-phenyl-1,3,8-triaza-spiro[4.5]dec-8-yl)-1-(4-methoxy-benzyl)-2-oxo-ethyl]-3-(3-methyl-3H-imidazol-4-yl)-propionamide] are “partial agonist”, 20 nM and 43%.
On the same counts, the results for `COc1ccc(C[C@@H](NC(=O)CCc2c[nH]cn2)C(=O)N2CCC3(CC2)C(=O)N(Cc2cccc(Cl)c2)CN3c2ccccc2)cc1` [Example 155, N-[(R)-2-[3-(3-Chloro-benzyl)-4-oxo-1-phenyl-1,3,8-triaza-spiro[4.5]dec-8-yl]-1-(4-methoxy-benzyl)-2-oxo-ethyl]-3-(1H-imidazol-4-yl)-propionamide] are “partial agonist”, 14 nM and 42%.
In the same order, the values of `COc1ccc(C[C@@H](NC(=O)CCc2c[nH]cn2)C(=O)N2CCC3(CC2)C(=O)N(Cc2cccnc2)CN3c2ccccc2)cc1` [Example 158, 3-(1H-Imidazol-4-yl)-N-[(R)-1-(4-methoxy-benzyl)-2-oxo-2-(4-oxo-1-phenyl-3-pyridin-3-ylmethyl-1,3,8-triaza-spiro[4.5]dec-8-yl)-ethyl]-propionamide] are “partial agonist”, 20 nM and 45%.
